Results on one compound are retold here after patent US9194862B2, “Compositions and methods for determining cancer stem cell self-renewal potential” (THE REGENTS OF THE UNIVERSITY OF CALIFORNIA, priority 2009, dated 2015).

Experiment [1] deals with progenitors (CD34+CD38+Lin−) from CML BC-derived tumors. Kind of experiment: CML BC progenitor engraftment in transplanted mice, FACS of human CD45+ cells in liver. It counts as in vivo. To be noted: oral gavage daily for 3 weeks, 120 μg/kg, vs vehicle, FACS of livers, n=4 vs n=5, p=0.03. The protocol: Briefly, immunocompromised neonatal mice were transplanted intrahepatically with luciferase GFP transduced myeloid sarcomas from mice transplanted with BC CSC, the methodology described in Geron et al, Cancer Cell 2008; 13(4):321-30. […] Engraftment levels were determined by FACS analysis of human CD45^+ expression in mouse livers on […] post-transplant.
FIG. 3C. Left: qPCR analysis of Mcl-1 long (blue) and short (red) transcripts from progenitors (CD34^+CD38^+Lin^−) of several normal and CML samples. […] FIG. 4 below. […] FIG. 4A. […] Representative FACS data of CD45^+ cells in mouse livers transplanted with progenitors (CD34^+CD38^+Lin^−) from CML BC-derived tumors. […] Mouse livers were harvested at 13 weeks post-transplant, stained, and analyzed for human CD45^+ cells using FACS. • FIG. 4C.

Experiment [2] has as its system Mcl-1 long and short isoform. Kind of experiment: qPCR of Mcl-1 long and short isoforms in tumor cells harvested from treated mice. It counts as in vivo. Particulars: tumor cells from treated mice (n=3) vs vehicle (n=2). The text has this: For gene expression analysis, cDNA was made from RNA isolated from sorted progenitor populations (CD34^+CD38^+Lin^−). Isoform specific RT-PCR was used to determine expression levels of Bcl-2, Bcl-X, and Mcl-1 isoforms. Expression was confirmed using qPCR.
(In general: In qPCR the cycle at which signal appears reflects the starting amount.)

As to `Cc1cc2c(C(C)C)c(O)c(O)cc2c(O)c1-c1c(C)cc2c(C(C)C)c(O)c(O)cc2c1O` [apogossypol], the “number/frequency of human CD45+ cells engrafted in the mouse liver (tumor cell engraftment)” value in experiment [1] is “statistically significant (p=0.03) decrease in tumor cell engraftment”; in experiment [1] (listed as Apogossypol) it was “statistically significant decrease”. For the same compound, in experiment [2], the “Mcl-1 short isoform expression” value is recorded as “higher Mcl-1 short isoform expression”.
